Where two headings read alike, the source gives them in different places.
Tests used:
[1] = test system: Human keratinocytes (HEK, Human Epidermal Keratinocytes); assay: Mitochondrial dehydrogenase activity (WST-1 formazan assay) in HEK cells; format: cell-based
[2] = Anti-radical activity (decay of the DPPH radical); format: biochemical; settings: for Anti-radical (skin protective): 24 hours
Method in brief: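 Test substance in ethanol mixed 1:1 with 200 µM DPPH (stock concentrations), in quadruplicate. Absorbance read at 530 nm after 30 min, with vitamin C and ethanol-only controls. IC50 from variable-slope Hill regression of dose-activity curves.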

[3] = test system: collagen produced by HDF cells; assay: Quantity of collagen produced by the cells (elution of Sirius Red); settings: 1-10 µM (1 µM and 10 µM)
[4] = test system: interleukin 6 (IL-6); assay: Inflammatory cytokines in cell supernatant (Mosaic ELISA microarray): IL-6; format: cell-based, Human; settings: for IL-6 ng/(ml* No. of cells from photo) ± SD: 24 hours; for IL-6 production (effect in words): 1-10 µM
[5] = test system: HUVEC cells (Human Umbilical Vein Endothelial Cells); assay: Mitochondrial dehydrogenase activity (WST-1 formazan assay) in HUVEC cells; format: cell-based; settings: vascular endothelial cells
[6] = test system: HDF cells; assay: Summary of uses and toxic effects deduced from the cell assays (Table 1); format: cell-based, Human
Method in brief: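 HDF cells exposed to test substances at a given dosage for 24 h; uses and toxicity inferred from free-radical scavenging, mitochondrial dehydrogenase activity, IL-1β/IL-6 production (basal or induced by 100 µM H2O2), proliferation under standard growth conditions, and senescence-like morphology.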

[7] = test system: Human dermal fibroblasts (HDF); assay: Mitochondrial dehydrogenase activity (WST-1 formazan assay) in HDF cells; settings: for Revitalizing agent: 24 hours; for activity at 1 µM / activity at 10 µM: Homo sapiens, Fibroblast, read-out: % mitochondrial dehydrogenase activity ± SD
[8] = test system: HDF cells; assay: Evaluation of cell proliferation (counting of Sirius Red stained cells in photographs); settings: 24 hours
[9] = test system: interleukin 1β (IL-1β); assay: Inflammatory cytokines in cell supernatant (Mosaic ELISA microarray): IL-1β; format: cell-based, Human; settings: 24 hours
[10] = Dose 1 µm (coptisine: 1 pm [sic])
[11] = Dose 1 µm (coptisine: 1 pm [sic]), 24 hours

COc1ccc2cc3[n+](cc2c1OC)CCc1cc2c(cc1-3)OCO2 [berberine]
mitochondrial dehydrogenase activity (effect in words) ([1]; higher doses): inhibit mitochondrial dehydrogenase activity
mitochondrial dehydrogenase activity (effect in words) ([1]; low doses): stimulate mitochondrial dehydrogenase activity
% DPPH activity ([2]; 1 mM, 30 minutes): 100%
Anti-radical (skin protective) [2, 10]: No
Anti-radical (skin protective) ([2]; Dose 10 µm): No
collagen production (effect in words) ([3]; 34 ng/ml TGF-β1): antagonizes the stimulation of collagen induced by 34 ng/ml TGF-β1
collagen production (effect in words) ([3]; 100 µM H2O2): antagonizes the inhibition of collagen production induced by H2O2
IL-6 ng/(ml* No. of cells from photo) ± SD ([4]; 1 µM, 34 ng/ml TGF-β1): 657±5 ng/(ml* No. of cells from photo)
IL-6 ng/(ml* No. of cells from photo) ± SD ([4]; 1 µM, 100 µM H2O2): 1519±155 ng/(ml* No. of cells from photo)
IL-6 ng/(ml* No. of cells from photo) ± SD ([4]; 1 µM, Standard conditions): 843±35 ng/(ml* No. of cells from photo)
IL-6 ng/(ml* No. of cells from photo) ± SD ([4]; 10 µM, 34 ng/ml TGF-β1): 603±21 ng/(ml* No. of cells from photo)
IL-6 ng/(ml* No. of cells from photo) ± SD ([4]; 10 µM, 100 µM H2O2): 1201±84 ng/(ml* No. of cells from photo)
IL-6 ng/(ml* No. of cells from photo) ± SD ([4]; 10 µM, Standard conditions): 618±25 ng/(ml* No. of cells from photo)
IL-6 production (effect in words) ([4]; 34 ng/ml TGF-β1): tendency to reduce the production of IL-6 in a dose-dependent manner
IL-6 production (effect in words) ([4]; 100 µM H2O2): tendency to reduce the production of IL-6 in a dose-dependent manner
IL-6 production (effect in words) ([4]; standard conditions): tendency to reduce the production of IL-6 in a dose-dependent manner
mitochondrial dehydrogenase activity (effect in words) ([5]; higher doses): inhibit mitochondrial dehydrogenase activity
mitochondrial dehydrogenase activity (effect in words) ([5]; low doses): stimulate mitochondrial dehydrogenase activity
Cytotoxic [6]: No
Irritant [6]: No
Anti-fibrotic (prevention of scar formation, also from acne) [6, 11]: Yes (↓collagen, ↓IL-6)
Cytoprotective (antioxidant, anti-inflammatory and anti-ageing; useful also in the treatment of acne) [6, 11]: Yes* (↓IL-6)
Wound-healing [6, 11]: No
Anti-fibrotic (prevention of scar formation, also from acne) ([6]; Dose 10 µm, 24 hours): Yes (↓collagen, ↓IL-6)
Cytoprotective (antioxidant, anti-inflammatory and anti-ageing; useful also in the treatment of acne) ([6]; Dose 10 µm, 24 hours): Yes* (↓IL-6)
Cytotoxic ([6]; Dose 10 µm, 24 hours): No
Irritant ([6]; Dose 10 µm, 24 hours): No
Wound-healing ([6]; Dose 10 µm, 24 hours): No
concentrations at which no toxic (cytotoxic and irritant) effects are shown ([6]; exposure for 24 hours): less than or equal to 10 µM
mitochondrial dehydrogenase activity (effect in words) ([7]; 1 and 10 µM, 18 h and 42 h, more marked at 42 h): increased with respect to the control
Revitalizing agent [7, 10]: Yes
Revitalizing agent ([7]; Dose 10 µm): Yes
activity at 1 µM ([7]; 18 h): 114 ± 2.98%
activity at 10 µM ([7]; 18 h): 114 ± 10%
activity at 1 µM ([7]; 42 h): 140 ± 8.89%
activity at 10 µM ([7]; 42 h): 132 ± 10.2%
mitochondrial dehydrogenase activity (effect in words) ([7]; fibroblast cells, higher doses): inhibit mitochondrial dehydrogenase activity
mitochondrial dehydrogenase activity (effect in words) ([7]; fibroblast cells, low dosage): stimulate mitochondrial dehydrogenase activity
No. of cells from photo ± SD ([8]; 1 µM, 34 ng/ml TGF-β1): 181±18
No. of cells from photo ± SD ([8]; 1 µM, 100 µM H2O2): 129±24
No. of cells from photo ± SD ([8]; 1 µM, Standard conditions): 203±11
No. of cells from photo ± SD ([8]; 10 µM, 34 ng/ml TGF-β1): 184±28
No. of cells from photo ± SD ([8]; 10 µM, 100 µM H2O2): 119±10
No. of cells from photo ± SD ([8]; 10 µM, Standard conditions): 176±35
IL-1β ng/(ml* No. of cells from photo) ± SD ([9]; 1 µM, 34 ng/ml TGF-β1): 138±5 ng/(ml* No. of cells from photo)
IL-1β ng/(ml* No. of cells from photo) ± SD ([9]; 1 µM, 100 µM H2O2): 178±1 ng/(ml* No. of cells from photo)
IL-1β ng/(ml* No. of cells from photo) ± SD ([9]; 1 µM, Standard conditions): 120±6 ng/(ml* No. of cells from photo)
IL-1β ng/(ml* No. of cells from photo) ± SD ([9]; 10 µM, 34 ng/ml TGF-β1): 146±4 ng/(ml* No. of cells from photo)
IL-1β ng/(ml* No. of cells from photo) ± SD ([9]; 10 µM, 100 µM H2O2): 210±16 ng/(ml* No. of cells from photo)
IL-1β ng/(ml* No. of cells from photo) ± SD ([9]; 10 µM, Standard conditions): 94±5 ng/(ml* No. of cells from photo)
